Data: US11414424B2, “Cardiac sarcomere inhibitors” (Cytokinetics, Inc., priority 2018, dated 2022)

Tested on: bovine cardiac myofibrils
Experiment: Myofibril assay: PK/LDH-coupled steady-state ATPase activity of skinned bovine cardiac myofibrils
Assay type: biochemical
Details: Ca2+ activating to 75% of maximal rate
Method in brief: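 Steady-state ATPase of detergent-skinned bovine left-ventricular myofibrils (1 mg/mL), PK/LDH-coupled NADH read at 340 nm, in PIPES/MgCl2 buffer pH 6.8 with 50 μM ATP, 0.6 mM EGTA and CaCl2 set for 50% or 75% activation. Inhibition of activity measured.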

SMILES | CDMF75 IC15 [µM] | CDMF75 IC15 (listed as 867A) [µM]
CC(C)N1CC(=O)N(Cc2ccc(Cl)cc2)C2(CCN(C(=O)NC3CC3)C2)C1=O (centres unmarked) [Compound 122, 6-(4-chlorobenzyl)-N-cyclopropyl-9-isopropyl-7,10-dioxo-2,6,9-triazaspiro[4.5]decane-2-carboxamide] | 20.5 | –
CNC(=S)N1CC2(C1)C(=O)N(c1ccc(C#N)cc1)CC(=O)N2Cc1ccc(C(F)(F)F)cc1 [Compound 189, 8-(4-cyanophenyl)-N-methyl-6,9-dioxo-5-(4-(trifluoromethyl)benzyl)-2,5,8-triazaspiro[3.5]-nonane-2-carbothioamide] | 1.4 | –
CC(C)N1CC(=O)N(Cc2ccc(C(F)(F)F)cc2)C2(CCN(c3cccnn3)C2)C1=O (centres unmarked) [Compound 73, 9-isopropyl-2-(pyridazin-3-yl)-6-(4-(trifluoromethyl)benzyl)-2,6,9-triazaspiro[4.5]-decane-7,10-dione] | 5.7 | –
CC(C)N1CC(=O)N(Cc2ccc(Cl)cc2)C2(CN(c3ccnc(O)c3)C2)C1=O [Compound 28, 5-(4-chlorobenzyl)-2-(2-hydroxypyridin-4-yl)-8-isopropyl-2,5,8-triazaspiro[3.5]nonane-6,9-dione] | 3.1 | –
CNC(=O)N1CC2(C1)C(=O)N(c1ccc(OC)c(F)c1)CC(=O)N2Cc1ccc(C(F)(F)F)cc1 [Compound 170, 8-(3-fluoro-4-methoxy-phenyl)-N-methyl-6,9-dioxo-5-(4-(trifluoromethyl)-benzyl)-2,5,8-triazaspiro-[3.5]nonane-2-carboxamide] | 2.9 | –
CCC(=O)N1CC[C@]2(C1)C(=O)N(c1ccc(C#N)cc1F)CC(=O)N2Cc1ccc(Cl)cc1 [Compound 214, (S)-4-(6-(4-chlorobenzyl)-7,10-dioxo-2-propionyl-2,6,9-triazaspiro[4.5]decan-9-yl)-3-fluorobenzonitrile] | 0.5 | –
N#Cc1ccc(N2CC(=O)N(Cc3ccc(C(F)(F)F)cc3)C3(CN(C(=O)NC4CC4)C3)C2=O)cc1F [Compound 199, 8-(4-cyano-3-fluorophenyl)-N-cyclopropyl-6,9-dioxo-5-(4-(trifluoromethyl)benzyl)-2,5,8-triazaspiro[3.5]nonane-2-carboxamide] | 2.3 | –
CC(C)N1CC(=O)N(Cc2ccc(Cl)cc2)C2(CN(c3cn[nH]c3)C2)C1=O [Compound 41, 5-(4-chlorobenzyl)-8-isopropyl-2-(1H-pyrazol-4-yl)-2,5,8-triazaspiro-[3.5]nonane-6,9-dione] | 7.0 | –
CC(C)C(=O)N1CC[C@]2(C1)C(=O)N(c1ccc(C#N)cc1F)CC(=O)N2Cc1ccc(Cl)cc1 [Compound 221, (S)-4-(6-(4-chlorobenzyl)-2-isobutyryl-7,10-dioxo-2,6,9-triazaspiro[4.5]decan-9-yl)-3-fluorobenzonitrile] | 4.1 | –
Cc1cc(N2CCC3(C2)C(=O)N(C(C)C)CC(=O)N3Cc2ccc(C(F)(F)F)cc2)ccn1 (centres unmarked) [Compound 72, 9-isopropyl-2-(2-methylpyridin-4-yl)-6-(4-(trifluoromethyl)benzyl)-2,6,9-triazaspiro[4.5]-decane-7,10-dione] | 9.0 | –

Next, values leading:

CDMF75 IC15 [µM] | CDMF75 IC15 (listed as 867A) [µM] | SMILES
16.4 | – | Cc1cccc(CN2C(=O)CN(C(C)C)C(=O)C2c2ccc(Cl)cc2)c1 (centres unmarked) [Compound 304, 3-(4-chlorophenyl)-1-isopropyl-4-(3-methyl-benzyl)piperazine-2,5-dione]
– | 2.1 | O=C1CN(c2ccc(Cl)cc2F)C(=O)C2(CC(O)C2)N1Cc1ccc(F)cc1 (single isomer, unassigned) [Diastereomer 867A, 8-(4-chloro-2-fluorophenyl)-5-(4-fluorobenzyl)-2-hydroxy-5,8-diazaspiro[3.5]nonane-6,9-dione]
32.7 | – | O=C1CN(c2ccc(Cl)cc2F)C(=O)CN1Cc1ccc(C(F)(F)F)cc1 [Compound 277, 1-(4-chloro-2-fluorophenyl)-4-(4-(trifluoromethyl)-benzyl)piperazine-2,5-dione]
>39 | – | O=C1C(C2CC(O)C2)N(Cc2ccc(C(F)(F)F)cc2)C(=O)CN1c1ncc(Cl)cc1F (single isomer, unassigned) [Compound 740C, 1-(5-chloro-3-fluoropyridin-2-yl)-3-(3-hydroxycyclobutyl)-4-(4-(trifluoromethyl)benzyl)piperazine-2,5-dione]
5.5 | – | N#Cc1ccc(N2CC3(C2)C(=O)N(c2ccccc2)CC(=O)N3Cc2ccc(C(F)(F)F)cc2)nc1 [Compound 350, 6-(6,9-dioxo-8-phenyl-5-(4-(trifluoromethyl)benzyl)-2,5,8-triazaspiro[3.5]nonan-2-yl)nicotinonitrile]
2.1 | – | NC(=O)C12CC([C@H]3C(=O)N(c4ncc(Cl)cc4F)CC(=O)N3Cc3ccc(C(F)F)cc3)(C1)C2 [Compound 821, (S)-3-(4-(5-chloro-3-fluoropyridin-2-yl)-3,6-dioxo-1-(4-(difluoro-methyl)benzyl)piperazin-2-yl)bicyclo[1.1.1]pentane-1-carboxamide]
0.8 | – | O=C1CN(c2ncc(Cl)cc2F)C(=O)C2(CC2)N1Cc1ccc(C(F)(F)F)cc1 [Compound 550, 7-(5-chloro-3-fluoropyridin-2-yl)-4-(4-(trifluoromethyl)benzyl)-4,7-diazaspiro[2.5]octane-5,8-dione]
36.0 | – | CC(C)N1CC(=O)N(Cc2ccc(Cl)cn2)C(c2ccc(Cl)cc2)C1=O (centres unmarked) [Compound 293, 3-(4-chlorophenyl)-4-((5-chloropyridin-2-yl)methyl)-1-isopropylpiperazine-2,5-dione]
3.0 | – | C[C@H]1C(=O)N(c2ccc(Cl)cc2F)CC(=O)N1Cc1ccc(C(F)(F)F)cc1 [Compound 276, (S)-1-(4-chloro-2-fluoro-phenyl)-3-methyl-4-(4-(trifluoromethyl)benzyl)-piperazine-2,5-dione]
17.8 | – | CC(=O)N1CC2(C1)C(=O)N(c1ncc(C(F)(F)F)cc1F)CC(=O)N2[C@@H](C)c1ccc(Cl)cc1 [Compound 565, (S)-2-acetyl-5-(1-(4-chlorophenyl)ethyl)-8-(3-fluoro-5-(trifluoromethyl)-pyridin-2-yl)-2,5,8-triazaspiro[3.5]nonane-6,9-dione]
0.3 | – | Cc1cc(Cl)cnc1N1CC(=O)N(Cc2ccc(Cl)cc2)C2(CN(c3ccccn3)C2)C1=O [Compound 882, 8-(5-chloro-3-methyl-pyridin-2-yl)-5-(4-chloro-benzyl)-2-(pyridin-2-yl)-2,5,8-triazaspiro[3.5]-nonane-6,9-dione]
1.3 | – | CNC(=O)N1CC2(C1)C(=O)N(c1ncc(Cl)cc1F)CC(=O)N2[C@@H](C)c1ccc(C(F)(F)F)cc1 [Compound 592, (S)-8-(5-chloro-3-fluoro-pyridin-2-yl)-N-methyl-6,9-dioxo-5-(1-(4-(trifluoromethyl)phenyl)-ethyl)-2,5,8-triazaspiro-[3.5]nonane-2-carboxamide]
2.0 | – | O=C1C(C2COC2)N(Cc2ccc(Cl)c(F)c2)C(=O)CN1c1ncc(Cl)cc1F (centres unmarked) [Compound 648, 4-(4-chloro-3-fluorobenzyl)-1-(5-chloro-3-fluoropyridin-2-yl)-3-(oxetan-3-yl)-piperazine-2,5-dione]
